Results reported in the NIST ThermoML archive (doi:10.1016/j.tca.2005.11.041).

Assay: excess molar enthalpy (molar enthalpy of mixing); xn = mol fraction of the nth substance listed
Conditions: Liquid, Flow calorimetry

COC=O [methyl methanoate] + CCCO
excess molar enthalpy [kcal/mol]
Conditions	298.15 K	333.15 K
5000 kPa, x1 = 0.0399	0.0784	–
5000 kPa, x1 = 0.0788	0.1484	–
5000 kPa, x1 = 0.1201	0.2123	–
5000 kPa, x1 = 0.1621	0.2668	–
5000 kPa, x1 = 0.2066	0.3134	–
5000 kPa, x1 = 0.2501	0.3511	–
5000 kPa, x1 = 0.2944	0.38	–
5000 kPa, x1 = 0.3414	0.4016	–
5000 kPa, x1 = 0.3893	0.4175	–
5000 kPa, x1 = 0.4381	0.4248	–
5000 kPa, x1 = 0.4878	0.4274	–
5000 kPa, x1 = 0.5386	0.4217	–
5000 kPa, x1 = 0.5903	0.4078	–
5000 kPa, x1 = 0.6452	0.3837	–
5000 kPa, x1 = 0.699	0.3526	–
5000 kPa, x1 = 0.7562	0.3063	–
5000 kPa, x1 = 0.8146	0.2533	–
5000 kPa, x1 = 0.8743	0.1849	–
5000 kPa, x1 = 0.9376	0.09713	–
10000 kPa, x1 = 0.0398	0.08184	–
10000 kPa, x1 = 0.0403	–	0.0804
10000 kPa, x1 = 0.0786	0.1545	–
10000 kPa, x1 = 0.0788	–	0.1602
10000 kPa, x1 = 0.1197	0.2204	–
10000 kPa, x1 = 0.1205	–	0.2359
10000 kPa, x1 = 0.1616	0.2756	–
10000 kPa, x1 = 0.1629	–	0.3022
10000 kPa, x1 = 0.2061	0.3245	0.3577
10000 kPa, x1 = 0.2495	0.3621	–
10000 kPa, x1 = 0.25	–	0.4038
10000 kPa, x1 = 0.2937	0.3913	–
10000 kPa, x1 = 0.2948	–	0.4424
10000 kPa, x1 = 0.3404	–	0.4715
10000 kPa, x1 = 0.3407	0.4134	–
10000 kPa, x1 = 0.3868	–	0.4918
10000 kPa, x1 = 0.3885	0.4284	–
10000 kPa, x1 = 0.437	–	0.5043
10000 kPa, x1 = 0.4373	0.436	–
10000 kPa, x1 = 0.4853	–	0.5087
10000 kPa, x1 = 0.487	0.4358	–
10000 kPa, x1 = 0.5374	–	0.5014
10000 kPa, x1 = 0.5377	0.428	–
10000 kPa, x1 = 0.5895	0.4126	–
10000 kPa, x1 = 0.5907	–	0.4864
10000 kPa, x1 = 0.6444	0.3875	–
10000 kPa, x1 = 0.645	–	0.4589
10000 kPa, x1 = 0.6983	0.3565	–
10000 kPa, x1 = 0.7005	–	0.4193
10000 kPa, x1 = 0.7556	0.3115	–
10000 kPa, x1 = 0.7572	–	0.3654
10000 kPa, x1 = 0.8141	0.2558	–
10000 kPa, x1 = 0.8151	–	0.3029
10000 kPa, x1 = 0.8739	0.1848	–
10000 kPa, x1 = 0.8743	–	0.2236
10000 kPa, x1 = 0.9347	–	0.1235
10000 kPa, x1 = 0.9374	0.09637	–

COC=O [methyl methanoate] + CCC(C)O
excess molar enthalpy [kcal/mol], 298.15 K
Conditions	5000 kPa	10000 kPa
x1 = 0.0501	0.1085	–
x1 = 0.0996	–	0.2144
x1 = 0.1	0.2057	–
x1 = 0.1496	0.2851	–
x1 = 0.15	–	0.2904
x1 = 0.1994	–	0.3556
x1 = 0.2	0.3517	–
x1 = 0.2493	–	0.4085
x1 = 0.2496	0.4039	–
x1 = 0.2997	–	0.4503
x1 = 0.2999	0.4445	–
x1 = 0.3504	–	0.4797
x1 = 0.3508	0.4745	–
x1 = 0.3993	–	0.4997
x1 = 0.4004	0.4926	–
x1 = 0.4503	0.5028	–
x1 = 0.4504	–	0.5095
x1 = 0.4992	–	0.5099
x1 = 0.5003	0.5039	–
x1 = 0.5501	–	0.5012
x1 = 0.5505	0.4958	–
x1 = 0.6006	0.4793	0.4852
x1 = 0.6505	0.4572	–
x1 = 0.6508	–	0.4587
x1 = 0.7002	0.4214	–
x1 = 0.7003	–	0.4234
x1 = 0.7491	–	0.3804
x1 = 0.7494	0.3806	–
x1 = 0.7997	–	0.3235
x1 = 0.8004	0.3283	–
x1 = 0.8494	–	0.2584
x1 = 0.8509	0.2606	–
x1 = 0.9006	0.1836	–
x1 = 0.9008	–	0.1743
x1 = 0.9495	0.09928	–

COC=O [methyl methanoate] + CC(C)O
298.15 K
Conditions	excess molar enthalpy [kcal/mol]
5000 kPa, x1 = 0.0399	0.08475
5000 kPa, x1 = 0.0822	0.1674
5000 kPa, x1 = 0.1235	0.2356
5000 kPa, x1 = 0.1656	0.2947
5000 kPa, x1 = 0.2102	0.3451
5000 kPa, x1 = 0.2556	0.3878
5000 kPa, x1 = 0.3	0.4214
5000 kPa, x1 = 0.3471	0.4472
5000 kPa, x1 = 0.3951	0.4659
5000 kPa, x1 = 0.444	0.4756
5000 kPa, x1 = 0.4938	0.4777
5000 kPa, x1 = 0.5447	0.4726
5000 kPa, x1 = 0.5965	0.4596
5000 kPa, x1 = 0.6494	0.4357
5000 kPa, x1 = 0.7055	0.3992
5000 kPa, x1 = 0.7606	0.3557
5000 kPa, x1 = 0.8191	0.2934
5000 kPa, x1 = 0.8766	0.223
5000 kPa, x1 = 0.9376	0.1214
10000 kPa, x1 = 0.0398	0.0857
10000 kPa, x1 = 0.082	0.1675
10000 kPa, x1 = 0.1232	0.2355
10000 kPa, x1 = 0.1651	0.2936
10000 kPa, x1 = 0.2096	0.3446
10000 kPa, x1 = 0.2549	0.3862
10000 kPa, x1 = 0.2993	0.4185
10000 kPa, x1 = 0.3463	0.4443
10000 kPa, x1 = 0.3943	0.4624
10000 kPa, x1 = 0.4432	0.4723
10000 kPa, x1 = 0.493	0.4745
10000 kPa, x1 = 0.5439	0.4703
10000 kPa, x1 = 0.5957	0.4555
10000 kPa, x1 = 0.6487	0.4324
10000 kPa, x1 = 0.7048	0.3963
10000 kPa, x1 = 0.76	0.351
10000 kPa, x1 = 0.8186	0.2901
10000 kPa, x1 = 0.8762	0.2164
10000 kPa, x1 = 0.9374	0.118
